Results taken from ChEMBL document CHEMBL4507268 (2021).

How the values were obtained:
Details in all cases: Compound concentration 1.0 uM
[1] = target: PI3-kinase p110-alpha/p85-alpha (Homo sapiens) (UniProt P27986+P42336)
[2] = target: T1, Mitogen-activated protein kinase 12 (Homo sapiens) (UniProt P53778)
T1 sequence (whole entry): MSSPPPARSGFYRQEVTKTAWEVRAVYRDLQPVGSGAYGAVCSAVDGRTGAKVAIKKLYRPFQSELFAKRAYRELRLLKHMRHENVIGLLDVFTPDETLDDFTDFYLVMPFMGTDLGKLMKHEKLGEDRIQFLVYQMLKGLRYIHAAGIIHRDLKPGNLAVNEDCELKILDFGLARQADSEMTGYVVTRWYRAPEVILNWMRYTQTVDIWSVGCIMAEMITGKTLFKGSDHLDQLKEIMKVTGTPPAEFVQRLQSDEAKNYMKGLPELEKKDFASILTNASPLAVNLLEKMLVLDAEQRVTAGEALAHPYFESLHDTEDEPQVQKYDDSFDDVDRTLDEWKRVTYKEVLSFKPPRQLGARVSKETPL

[3] = target: Serine/threonine-protein kinase/endoribonuclease IRE1 (Homo sapiens) (UniProt O75460)
Chain of Serine/threonine-protein kinase/endoribonuclease IRE1 (Homo sapiens) (O75460 19-977 limits assumed): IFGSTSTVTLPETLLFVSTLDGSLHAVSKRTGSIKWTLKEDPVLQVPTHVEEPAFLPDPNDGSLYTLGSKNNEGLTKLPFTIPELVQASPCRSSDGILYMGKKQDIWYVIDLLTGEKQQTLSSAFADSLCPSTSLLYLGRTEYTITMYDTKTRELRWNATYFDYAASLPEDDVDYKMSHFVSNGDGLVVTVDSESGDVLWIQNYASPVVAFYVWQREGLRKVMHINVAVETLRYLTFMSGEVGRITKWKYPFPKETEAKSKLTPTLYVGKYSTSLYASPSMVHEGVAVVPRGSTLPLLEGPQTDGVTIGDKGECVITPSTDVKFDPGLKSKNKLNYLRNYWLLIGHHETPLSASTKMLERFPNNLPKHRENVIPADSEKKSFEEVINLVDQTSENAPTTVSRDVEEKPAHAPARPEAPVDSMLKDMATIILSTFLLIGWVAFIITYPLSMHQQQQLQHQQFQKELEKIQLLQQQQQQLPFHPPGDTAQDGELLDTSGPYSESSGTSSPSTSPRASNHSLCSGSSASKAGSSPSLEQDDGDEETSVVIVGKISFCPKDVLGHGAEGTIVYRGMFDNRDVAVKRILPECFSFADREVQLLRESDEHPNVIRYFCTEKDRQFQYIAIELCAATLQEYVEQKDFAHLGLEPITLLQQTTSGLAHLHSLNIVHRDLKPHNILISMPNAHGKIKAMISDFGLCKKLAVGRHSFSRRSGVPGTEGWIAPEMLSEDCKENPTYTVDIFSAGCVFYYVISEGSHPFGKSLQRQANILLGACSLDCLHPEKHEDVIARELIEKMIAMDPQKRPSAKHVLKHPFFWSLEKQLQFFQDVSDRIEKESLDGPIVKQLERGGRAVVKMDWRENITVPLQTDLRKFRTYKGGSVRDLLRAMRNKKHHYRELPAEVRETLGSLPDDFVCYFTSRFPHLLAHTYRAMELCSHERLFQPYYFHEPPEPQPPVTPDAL

[4] = target: Serine/threonine-protein kinase WNK2 (Homo sapiens) (UniProt Q9Y3S1)
Chain of Serine/threonine-protein kinase WNK2 (Homo sapiens) (Q9Y3S1 whole entry): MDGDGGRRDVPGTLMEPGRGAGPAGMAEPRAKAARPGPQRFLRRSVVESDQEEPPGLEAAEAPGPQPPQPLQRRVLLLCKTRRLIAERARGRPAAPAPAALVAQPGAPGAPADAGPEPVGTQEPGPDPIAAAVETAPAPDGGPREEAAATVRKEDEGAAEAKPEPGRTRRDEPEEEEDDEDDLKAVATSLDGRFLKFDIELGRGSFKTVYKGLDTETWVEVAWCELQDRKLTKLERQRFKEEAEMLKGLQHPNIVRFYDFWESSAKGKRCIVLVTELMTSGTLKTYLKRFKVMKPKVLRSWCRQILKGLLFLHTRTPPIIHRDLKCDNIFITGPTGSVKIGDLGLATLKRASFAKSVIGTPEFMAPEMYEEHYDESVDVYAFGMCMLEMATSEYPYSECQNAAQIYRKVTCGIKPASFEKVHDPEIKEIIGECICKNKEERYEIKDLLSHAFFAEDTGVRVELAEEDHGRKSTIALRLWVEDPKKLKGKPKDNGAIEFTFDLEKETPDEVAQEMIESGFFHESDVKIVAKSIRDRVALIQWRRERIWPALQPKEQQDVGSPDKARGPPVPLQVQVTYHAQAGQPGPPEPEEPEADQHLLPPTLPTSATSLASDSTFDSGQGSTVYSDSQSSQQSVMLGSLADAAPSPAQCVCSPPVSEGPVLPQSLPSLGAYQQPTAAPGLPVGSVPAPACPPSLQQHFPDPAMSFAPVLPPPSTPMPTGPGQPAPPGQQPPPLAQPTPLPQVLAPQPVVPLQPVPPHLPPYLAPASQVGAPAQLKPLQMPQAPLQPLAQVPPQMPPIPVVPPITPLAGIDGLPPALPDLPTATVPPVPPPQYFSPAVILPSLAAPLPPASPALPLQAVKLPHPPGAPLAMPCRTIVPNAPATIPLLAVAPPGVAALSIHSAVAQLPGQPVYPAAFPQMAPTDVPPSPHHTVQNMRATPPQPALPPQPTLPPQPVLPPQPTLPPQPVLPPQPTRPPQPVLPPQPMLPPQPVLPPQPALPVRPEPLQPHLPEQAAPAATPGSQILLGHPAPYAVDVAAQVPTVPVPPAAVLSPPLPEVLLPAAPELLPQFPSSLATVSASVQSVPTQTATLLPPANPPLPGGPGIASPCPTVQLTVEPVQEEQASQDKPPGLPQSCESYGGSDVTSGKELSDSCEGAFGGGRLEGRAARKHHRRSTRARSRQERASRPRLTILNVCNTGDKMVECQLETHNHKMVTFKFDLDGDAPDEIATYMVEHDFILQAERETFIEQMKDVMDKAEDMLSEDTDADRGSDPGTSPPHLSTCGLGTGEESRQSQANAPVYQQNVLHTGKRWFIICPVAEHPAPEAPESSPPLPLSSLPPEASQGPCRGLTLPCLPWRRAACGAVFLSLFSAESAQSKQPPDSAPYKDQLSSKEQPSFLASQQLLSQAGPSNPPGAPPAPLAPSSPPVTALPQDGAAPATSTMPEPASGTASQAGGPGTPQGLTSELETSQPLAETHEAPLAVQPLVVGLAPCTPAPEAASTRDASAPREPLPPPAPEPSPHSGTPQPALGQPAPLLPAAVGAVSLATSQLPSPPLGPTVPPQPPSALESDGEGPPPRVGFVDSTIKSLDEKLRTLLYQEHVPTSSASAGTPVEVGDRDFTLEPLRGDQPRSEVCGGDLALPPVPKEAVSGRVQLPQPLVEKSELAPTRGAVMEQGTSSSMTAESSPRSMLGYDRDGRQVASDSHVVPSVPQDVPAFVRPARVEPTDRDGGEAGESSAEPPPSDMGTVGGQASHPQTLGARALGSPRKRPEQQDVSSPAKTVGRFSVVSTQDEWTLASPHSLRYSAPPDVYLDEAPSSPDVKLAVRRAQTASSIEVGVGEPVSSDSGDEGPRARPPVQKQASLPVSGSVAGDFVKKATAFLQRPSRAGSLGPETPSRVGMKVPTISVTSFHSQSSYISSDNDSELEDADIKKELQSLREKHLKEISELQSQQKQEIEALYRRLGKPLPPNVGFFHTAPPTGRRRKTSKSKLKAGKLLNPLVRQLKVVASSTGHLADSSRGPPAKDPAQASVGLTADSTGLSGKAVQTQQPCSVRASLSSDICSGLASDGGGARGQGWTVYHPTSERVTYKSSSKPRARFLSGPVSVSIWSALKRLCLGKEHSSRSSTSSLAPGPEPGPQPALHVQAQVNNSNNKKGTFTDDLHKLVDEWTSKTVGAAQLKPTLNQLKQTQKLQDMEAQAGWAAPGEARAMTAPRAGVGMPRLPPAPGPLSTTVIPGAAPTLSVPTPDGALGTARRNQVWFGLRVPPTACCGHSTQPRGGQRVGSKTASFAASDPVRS

[5] = target: Tyrosine-protein kinase HCK (Homo sapiens) (UniProt P08631)
Chain of Tyrosine-protein kinase HCK (Homo sapiens) (P08631 2-526 limits assumed): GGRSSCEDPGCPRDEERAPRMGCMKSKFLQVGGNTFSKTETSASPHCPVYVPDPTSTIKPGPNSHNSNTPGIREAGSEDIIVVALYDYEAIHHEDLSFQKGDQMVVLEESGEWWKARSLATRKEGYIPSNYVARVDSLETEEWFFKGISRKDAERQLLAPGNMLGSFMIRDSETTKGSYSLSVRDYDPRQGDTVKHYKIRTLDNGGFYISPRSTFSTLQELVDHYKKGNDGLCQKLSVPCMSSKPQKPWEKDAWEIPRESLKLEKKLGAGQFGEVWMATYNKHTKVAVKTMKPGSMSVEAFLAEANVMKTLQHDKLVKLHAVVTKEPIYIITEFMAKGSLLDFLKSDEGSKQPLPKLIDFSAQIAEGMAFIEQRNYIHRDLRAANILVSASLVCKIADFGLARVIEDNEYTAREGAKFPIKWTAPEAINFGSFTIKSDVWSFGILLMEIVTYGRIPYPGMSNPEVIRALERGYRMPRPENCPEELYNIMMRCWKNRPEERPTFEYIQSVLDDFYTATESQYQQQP

[6] = target: Protein kinase C beta type (Homo sapiens) (UniProt P05771)
Chain of Protein kinase C beta type (Homo sapiens) (P05771 2-671 limits assumed): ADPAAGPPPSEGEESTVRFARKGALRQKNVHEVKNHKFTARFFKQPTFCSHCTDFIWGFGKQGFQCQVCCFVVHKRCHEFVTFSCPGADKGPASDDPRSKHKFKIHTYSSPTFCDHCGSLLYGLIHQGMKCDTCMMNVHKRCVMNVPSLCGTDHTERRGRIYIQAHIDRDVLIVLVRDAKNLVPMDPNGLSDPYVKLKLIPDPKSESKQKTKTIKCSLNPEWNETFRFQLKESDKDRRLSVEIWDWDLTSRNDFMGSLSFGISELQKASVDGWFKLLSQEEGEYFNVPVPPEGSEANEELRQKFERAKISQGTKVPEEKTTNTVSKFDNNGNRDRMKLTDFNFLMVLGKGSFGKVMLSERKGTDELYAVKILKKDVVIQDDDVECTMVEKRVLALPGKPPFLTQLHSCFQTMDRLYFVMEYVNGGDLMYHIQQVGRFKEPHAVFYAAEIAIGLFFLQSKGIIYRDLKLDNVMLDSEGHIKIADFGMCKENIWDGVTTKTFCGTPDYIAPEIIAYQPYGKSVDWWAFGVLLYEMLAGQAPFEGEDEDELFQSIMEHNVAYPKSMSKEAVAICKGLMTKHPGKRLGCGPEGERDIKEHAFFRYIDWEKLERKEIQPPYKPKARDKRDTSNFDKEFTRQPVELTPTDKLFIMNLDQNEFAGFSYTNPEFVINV

[7] = target: T2, Serine/threonine-protein kinase TAO2 (Homo sapiens) (UniProt Q9UL54)
T2 sequence (whole entry): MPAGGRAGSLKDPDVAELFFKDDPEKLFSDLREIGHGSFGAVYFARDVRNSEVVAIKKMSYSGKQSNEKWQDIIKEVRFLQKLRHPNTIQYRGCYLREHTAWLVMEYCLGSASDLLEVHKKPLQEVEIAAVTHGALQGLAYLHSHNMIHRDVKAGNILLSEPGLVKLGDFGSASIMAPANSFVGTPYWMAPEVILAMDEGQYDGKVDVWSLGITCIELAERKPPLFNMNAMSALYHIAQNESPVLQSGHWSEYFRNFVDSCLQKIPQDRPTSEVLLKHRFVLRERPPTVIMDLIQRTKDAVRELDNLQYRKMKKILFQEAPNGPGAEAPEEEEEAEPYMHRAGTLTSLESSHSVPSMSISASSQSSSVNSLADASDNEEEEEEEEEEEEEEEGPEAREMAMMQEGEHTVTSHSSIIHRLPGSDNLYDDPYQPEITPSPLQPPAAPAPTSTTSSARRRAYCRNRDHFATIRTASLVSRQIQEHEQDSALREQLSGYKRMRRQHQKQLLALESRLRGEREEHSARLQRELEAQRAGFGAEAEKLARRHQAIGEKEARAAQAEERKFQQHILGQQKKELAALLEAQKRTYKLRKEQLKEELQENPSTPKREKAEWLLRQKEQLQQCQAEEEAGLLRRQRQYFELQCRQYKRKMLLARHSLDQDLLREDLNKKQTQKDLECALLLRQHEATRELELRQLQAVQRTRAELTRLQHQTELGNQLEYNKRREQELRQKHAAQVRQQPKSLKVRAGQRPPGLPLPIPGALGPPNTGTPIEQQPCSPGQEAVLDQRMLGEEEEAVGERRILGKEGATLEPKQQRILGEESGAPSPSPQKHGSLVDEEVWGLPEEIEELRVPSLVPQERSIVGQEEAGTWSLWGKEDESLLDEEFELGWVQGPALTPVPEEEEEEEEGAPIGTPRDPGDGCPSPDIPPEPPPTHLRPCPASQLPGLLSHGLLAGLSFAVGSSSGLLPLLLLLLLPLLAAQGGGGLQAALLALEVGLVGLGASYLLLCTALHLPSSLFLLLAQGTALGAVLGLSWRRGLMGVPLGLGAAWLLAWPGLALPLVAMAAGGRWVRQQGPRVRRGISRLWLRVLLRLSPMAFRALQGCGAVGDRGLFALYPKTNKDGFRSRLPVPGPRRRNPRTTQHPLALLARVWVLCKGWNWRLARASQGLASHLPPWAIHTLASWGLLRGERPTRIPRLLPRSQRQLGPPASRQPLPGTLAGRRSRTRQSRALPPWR

[8] = target: Cyclin-dependent kinase 14/Cyclin-Y (Homo sapiens) (UniProt O94921+Q8ND76)
[9] = target: T3, Serine/threonine-protein kinase D3 (Homo sapiens) (UniProt O94806)
T3 sequence (whole entry): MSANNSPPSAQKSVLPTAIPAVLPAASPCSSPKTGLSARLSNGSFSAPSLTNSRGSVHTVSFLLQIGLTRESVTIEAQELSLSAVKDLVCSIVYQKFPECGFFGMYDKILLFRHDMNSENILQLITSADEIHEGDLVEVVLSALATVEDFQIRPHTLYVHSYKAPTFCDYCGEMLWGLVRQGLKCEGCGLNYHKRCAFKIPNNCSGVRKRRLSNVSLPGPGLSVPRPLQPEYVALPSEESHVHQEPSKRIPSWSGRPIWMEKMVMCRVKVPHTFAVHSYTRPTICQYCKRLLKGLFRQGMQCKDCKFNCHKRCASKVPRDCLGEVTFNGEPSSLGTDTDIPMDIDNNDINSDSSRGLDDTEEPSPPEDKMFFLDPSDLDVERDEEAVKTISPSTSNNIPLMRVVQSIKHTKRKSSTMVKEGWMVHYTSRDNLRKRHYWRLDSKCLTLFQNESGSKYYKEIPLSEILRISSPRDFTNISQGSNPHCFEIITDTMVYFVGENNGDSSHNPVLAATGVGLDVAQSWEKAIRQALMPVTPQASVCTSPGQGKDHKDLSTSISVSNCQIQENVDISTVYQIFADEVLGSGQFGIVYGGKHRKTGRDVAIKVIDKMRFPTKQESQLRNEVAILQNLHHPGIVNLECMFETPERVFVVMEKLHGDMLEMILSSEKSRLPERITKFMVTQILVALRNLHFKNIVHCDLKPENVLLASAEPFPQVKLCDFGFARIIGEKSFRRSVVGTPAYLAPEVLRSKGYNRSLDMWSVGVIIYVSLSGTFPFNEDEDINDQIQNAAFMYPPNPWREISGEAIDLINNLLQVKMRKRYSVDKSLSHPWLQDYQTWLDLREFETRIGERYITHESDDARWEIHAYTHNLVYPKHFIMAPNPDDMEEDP

[10] = target: Serine/threonine-protein kinase PAK 4 (Homo sapiens) (UniProt O96013)
Chain of Serine/threonine-protein kinase PAK 4 (Homo sapiens) (O96013 whole entry, looked up): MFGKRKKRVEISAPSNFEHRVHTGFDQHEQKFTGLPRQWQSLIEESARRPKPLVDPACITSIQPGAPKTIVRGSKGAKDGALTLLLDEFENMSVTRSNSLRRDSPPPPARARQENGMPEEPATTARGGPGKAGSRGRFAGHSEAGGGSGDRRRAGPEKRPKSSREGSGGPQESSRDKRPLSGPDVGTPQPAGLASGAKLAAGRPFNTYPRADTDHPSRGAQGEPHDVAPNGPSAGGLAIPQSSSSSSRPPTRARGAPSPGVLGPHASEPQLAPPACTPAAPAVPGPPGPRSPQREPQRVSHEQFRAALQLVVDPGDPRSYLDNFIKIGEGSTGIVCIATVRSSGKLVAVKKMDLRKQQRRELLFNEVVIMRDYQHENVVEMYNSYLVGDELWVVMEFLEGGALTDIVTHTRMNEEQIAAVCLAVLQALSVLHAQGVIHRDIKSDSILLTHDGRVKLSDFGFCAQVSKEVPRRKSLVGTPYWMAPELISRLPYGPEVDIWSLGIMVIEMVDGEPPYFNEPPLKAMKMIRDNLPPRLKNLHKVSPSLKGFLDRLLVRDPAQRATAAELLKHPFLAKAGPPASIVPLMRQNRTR

Measured: % residual kinase activity

CN1CCN(c2cnc3c(C4CCN(C(=O)c5ccc(OC(F)(F)F)cc5N)CC4)ncnc3c2)CC1 [BAY-885]
inactive: [1] 98% | [2] 112% | [3] 110% | [4] 107% | [5] 107% | [6] 112% | [7] 113% | [8] 117% | [9] 100% | [10] 101%
